Laboratory results from ChEMBL document CHEMBL3822451, “Structure-based design and synthesis of small molecular inhibitors disturbing the interaction of MLL1-WDR5” (Eur J Med Chem, 2016).
pIC50, pKd: −log10 of the molar value.

Biological target: T1, WD repeat-containing protein 5 (Homo sapiens, UniProt P61964)
Assay: Inhibition of 10mer-Thr-FAM probe binding to His-tagged human WDR5 expressed in Escherichia coli incubated for 2 hrs by fluorescence polarization assay

SMILES	pIC50
Cc1c(F)ccc(C(=O)Nc2cc(N)ccc2N2CCN(C)CC2)c1Cl	< 4.70
Cc1c(F)ccc(C(=O)Nc2cc(-c3ccncc3)ccc2N2CCN(C)CC2)c1Cl	6.98
COc1cccc(NC(=O)c2cc([N+](=O)[O-])ccc2N2CCN(C)CC2)c1	< 4.70
Cc1c(F)ccc(C(=O)Nc2ccc(-c3ccc(C(=O)O)cc3)cc2N2CCN(C)CC2)c1Cl	< 4.70
Cc1cc(C)c(S(=O)(=O)Nc2cc([N+](=O)[O-])ccc2N2CCN(C)CC2)c(C)c1	< 4.70
CN1CCN(c2ccc([N+](=O)[O-])cc2C(=O)Nc2ccccc2Cl)CC1	< 4.70
Cc1c(F)ccc(C(=O)Nc2cc(-c3ccc(N)cc3)ccc2N2CCN(C)CC2)c1Cl	6.69
Cc1c(F)c([N+](=O)[O-])cc(C(=O)Nc2cc(-c3ccccc3)ccc2N2CCN(C)CC2)c1Cl	6.68
Cc1c(F)ccc(C(=O)Nc2ccc(-c3ccc(N)cc3)cc2N2CCN(C)CC2)c1Cl	< 4.70
Cc1c(F)ccc(C(=O)Nc2ccc(-c3ccncc3)cc2N2CCN(C)CC2)c1Cl	< 4.70
CN1CCN(c2ccc([N+](=O)[O-])cc2NS(=O)(=O)c2ccc(F)cc2)CC1	< 4.70
COc1ccc(S(=O)(=O)Nc2cc([N+](=O)[O-])ccc2N2CCN(C)CC2)cc1	< 4.70
Cc1c(F)ccc(C(=O)Nc2cc(-c3ccccc3)ccc2N2CCN(C)CC2)c1Cl	6.33
CN1CCN(c2ccc([N+](=O)[O-])cc2C(=O)Nc2ccc(F)cc2F)CC1	< 4.70
COc1ccc(S(=O)(=O)Nc2cc([N+](=O)[O-])ccc2N2CCN(C)CC2)cc1OC	< 4.70
Cc1c(F)ccc(C(=O)Nc2ccc(-c3ccc([N+](=O)[O-])cc3)cc2N2CCN(C)CC2)c1Cl	< 4.70

Biological target: T1, WD repeat-containing protein 5
Assay: Binding affinity to His-tagged human WDR5 expressed in Escherichia coli by isothermal titration calorimetry

SMILES	pKd
Cc1c(F)ccc(C(=O)Nc2cc(-c3ccncc3)ccc2N2CCN(C)CC2)c1Cl	6.88
